Reference: patent US12077503B2, “Substituted cyclic amides and their use as herbicides” (FMC CORPORATION, priority 2015, dated 2024)

Legend:
Assay type in all cases: in vivo
corn (Zea mays) [1] = assay: Test G Pre-Emergence Protocol; conditions: Zea mays, pre-emergence, 312 h, evaluated after 13 days; for plant injury at 15.625 g/ha: 15.625 g ai/ha; for plant injury at 15.625 g/ha / plant injury at 250 g/ha: read-out: Corn damage rating (100=total damage to plant; 0=no damage to plant); for plant injury at 62.5 g/ha: 62.5 g ai/ha, 100=total damage to plant, 0=no damage to plant, read-out: plant damage rating, Corn; for plant injury at 250 g/ha: 250 g ai/ha
Procedure, shortened: (§1)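 Glasshouse pre-emergence test: soil-sown seeds, sprayed after 1 d at 15.625, 62.5 or 250 g/ha. Conditions 24/16° C day/night, 14 h light, 65% humidity, watering twice daily. Rating 13 d post-spray (100 = total damage).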

[2] = tested on: velvetleaf (Abutilon theophrasti); assay: Test G Pre-Emergence Protocol; conditions: Abutilon theophrasti, pre-emergence, 312 h, evaluated after 13 days; for pest or weed control at 15.625 g/ha: 15.625 g ai/ha; for pest or weed control at 15.625 g/ha / pest or weed control at 250 g/ha: read-out: Velvetleaf damage rating (100=total damage to plant; 0=no damage to plant); for pest or weed control at 62.5 g/ha: 62.5 g ai/ha, 100=total damage to plant, 0=no damage to plant, read-out: plant damage rating, Velvetleaf; for pest or weed control at 250 g/ha: 250 g ai/ha
Procedure, shortened: as §1

[3] = tested on: redroot pigweed (Amaranthus retroflexus); assay: Test G Pre-Emergence Protocol; conditions: Amaranthus retroflexus, pre-emergence, 312 h, evaluated after 13 days; for pest or weed control at 15.625 g/ha: 15.625 g ai/ha; for pest or weed control at 15.625 g/ha / pest or weed control at 250 g/ha: read-out: Pigweed, Redroot damage rating (100=total damage to plant; 0=no damage to plant); for pest or weed control at 62.5 g/ha: 62.5 g ai/ha, 100=total damage to plant, 0=no damage to plant, read-out: plant damage rating, Pigweed, Redroot; for pest or weed control at 250 g/ha: 250 g ai/ha
Procedure, shortened: as §1

[4] = tested on: barnyardgrass (Echinochloa crus-galli); assay: Test G Pre-Emergence Protocol; conditions: Echinochloa crus-galli, pre-emergence, 312 h, evaluated after 13 days; for pest or weed control at 15.625 g/ha: 15.625 g ai/ha, read-out: Barnyard grass damage rating (100=total damage to plant; 0=no damage to plant); for pest or weed control at 62.5 g/ha: 62.5 g ai/ha, 100=total damage to plant, 0=no damage to plant, read-out: plant damage rating, Barnyardgrass; for pest or weed control at 250 g/ha: 250 g ai/ha, read-out: Barnyardgrass damage rating (100=total damage to plant; 0=no damage to plant)
Procedure, shortened: as §1

[5] = tested on: ivy-leaved morning glory (Ipomoea hederacea); assay: Test G Pre-Emergence Protocol; conditions: Ipomoea, pre-emergence, 312 h, evaluated after 13 days; for pest or weed control at 15.625 g/ha: 15.625 g ai/ha, read-out: Morning-glory, Ivy-leaved damage rating (100=total damage to plant; 0=no damage to plant); for pest or weed control at 62.5 g/ha: 62.5 g ai/ha, 100=total damage to plant, 0=no damage to plant, read-out: plant damage rating, Morningglory, Ivy-leaved; for pest or weed control at 250 g/ha: 250 g ai/ha, read-out: Morningglory, Ivy-leaved damage rating (100=total damage to plant; 0=no damage to plant)
Procedure, shortened: as §1

[6] = tested on: giant foxtail (Setaria faberi); assay: Test G Pre-Emergence Protocol; conditions: Setaria faberi, pre-emergence, 312 h, evaluated after 13 days; for pest or weed control at 15.625 g/ha: 15.625 g ai/ha; for pest or weed control at 15.625 g/ha / pest or weed control at 250 g/ha: read-out: Foxtail, Giant damage rating (100=total damage to plant; 0=no damage to plant); for pest or weed control at 62.5 g/ha: 62.5 g ai/ha, 100=total damage to plant, 0=no damage to plant, read-out: plant damage rating, Foxtail, Giant; for pest or weed control at 250 g/ha: 250 g ai/ha
Procedure, shortened: as §1

corn (Zea mays) [7] = assay: Test G Post-Emergence Protocol; conditions: Zea mays, post-emergence, 312 h; for plant injury at 15.625 g/ha: 15.625 g ai/ha, evaluated after 13 days (100=total damage to plant; 0=no damage to plant), read-out: Corn damage rating; for plant injury at 62.5 g/ha: 62.5 g ai/ha, read-out: Corn damage rating (100=total damage to plant; 0=no damage to plant); for plant injury at 62.5 g/ha / plant injury at 250 g/ha: evaluated after 13 days; for plant injury at 250 g/ha: 250 g ai/ha, read-out: damage to plant, Corn (100=total damage to plant; 0=no damage to plant)
Procedure, shortened: (§2)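 Pot-grown seedlings, 8 days old, raised in a glasshouse at 24/16 °C day/night with 14 h light and 65% humidity, were sprayed post-emergence with test compound in acetone/water (50:50) plus 0.5% Tween 20 at 15.625, 62.5 or 250 g/ha. Damage was scored visually 13 days later on a 0–100 scale (100 = total damage).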

[8] = tested on: velvetleaf (Abutilon theophrasti); assay: Test G Post-Emergence Protocol; conditions: Abutilon theophrasti, post-emergence, 312 h; for pest or weed control at 15.625 g/ha: 15.625 g ai/ha, evaluated after 13 days (100=total damage to plant; 0=no damage to plant), read-out: Velvetleaf damage rating; for pest or weed control at 62.5 g/ha: 62.5 g ai/ha, read-out: Velvetleaf damage rating (100=total damage to plant; 0=no damage to plant); for pest or weed control at 62.5 g/ha / pest or weed control at 250 g/ha: evaluated after 13 days; for pest or weed control at 250 g/ha: 250 g ai/ha, read-out: damage to plant, Velvetleaf (100=total damage to plant; 0=no damage to plant)
Procedure, shortened: as §2

[9] = tested on: redroot pigweed (Amaranthus retroflexus); assay: Test G Post-Emergence Protocol; conditions: Amaranthus retroflexus, post-emergence, 312 h; for pest or weed control at 15.625 g/ha: 15.625 g ai/ha, evaluated after 13 days (100=total damage to plant; 0=no damage to plant), read-out: Pigweed, Redroot damage rating; for pest or weed control at 62.5 g/ha: 62.5 g ai/ha, read-out: Pigweed, Redroot damage rating (100=total damage to plant; 0=no damage to plant); for pest or weed control at 62.5 g/ha / pest or weed control at 250 g/ha: evaluated after 13 days; for pest or weed control at 250 g/ha: 250 g ai/ha, read-out: damage to plant, Pigweed, Redroot (100=total damage to plant; 0=no damage to plant)
Procedure, shortened: as §2

[10] = tested on: barnyardgrass (Echinochloa crus-galli); assay: Test G Post-Emergence Protocol; conditions: Echinochloa crus-galli, post-emergence, 312 h; for pest or weed control at 15.625 g/ha: 15.625 g ai/ha, evaluated after 13 days (100=total damage to plant; 0=no damage to plant), read-out: Barnyardgrass damage rating; for pest or weed control at 62.5 g/ha: 62.5 g ai/ha, read-out: Barnyardgrass damage rating (100=total damage to plant; 0=no damage to plant); for pest or weed control at 62.5 g/ha / pest or weed control at 250 g/ha: evaluated after 13 days; for pest or weed control at 250 g/ha: 250 g ai/ha, read-out: damage to plant, Barnyardgrass (100=total damage to plant; 0=no damage to plant)
Procedure, shortened: as §2

[11] = tested on: ivy-leaved morning glory (Ipomoea hederacea); assay: Test G Post-Emergence Protocol; conditions: Ipomoea, post-emergence, 312 h; for pest or weed control at 15.625 g/ha: 15.625 g ai/ha, evaluated after 13 days (100=total damage to plant; 0=no damage to plant), read-out: Morningglory, Ivy-leaved damage rating; for pest or weed control at 62.5 g/ha: 62.5 g ai/ha, read-out: Morningglory, Ivy-leaved damage rating (100=total damage to plant; 0=no damage to plant); for pest or weed control at 62.5 g/ha / pest or weed control at 250 g/ha: evaluated after 13 days; for pest or weed control at 250 g/ha: 250 g ai/ha, read-out: damage to plant, Morningglory, Ivy-leaved (100=total damage to plant; 0=no damage to plant)
Procedure, shortened: as §2

[12] = tested on: giant foxtail (Setaria faberi); assay: Test G Post-Emergence Protocol; conditions: Setaria faberi, post-emergence, 312 h; for pest or weed control at 15.625 g/ha: 15.625 g ai/ha, evaluated after 13 days (100=total damage to plant; 0=no damage to plant), read-out: Foxtail, Giant damage rating; for pest or weed control at 62.5 g/ha: 62.5 g ai/ha, read-out: Foxtail, Giant damage rating (100=total damage to plant; 0=no damage to plant); for pest or weed control at 62.5 g/ha / pest or weed control at 250 g/ha: evaluated after 13 days; for pest or weed control at 250 g/ha: 250 g ai/ha, read-out: damage to plant, Foxtail, Giant (100=total damage to plant; 0=no damage to plant)
Procedure, shortened: as §2

CN1C[C@@H](c2ccc(C(F)(F)F)cc2)[C@H](C(=O)Nc2cc(F)c(F)c(F)c2F)C1=O (racemic) [Compound 1625]
40%: pest or weed control at 250 g/ha [4] | pest or weed control at 250 g/ha [8] | pest or weed control at 250 g/ha [10]
20%: pest or weed control at 62.5 g/ha [3] | pest or weed control at 250 g/ha [11]
80%: pest or weed control at 250 g/ha [6] | pest or weed control at 250 g/ha [12]
50%: pest or weed control at 250 g/ha [9] | pest or weed control at 62.5 g/ha [12]
30%: pest or weed control at 62.5 g/ha [9] | pest or weed control at 62.5 g/ha [10]
0%: plant injury at 15.625 g/ha (corn (Zea mays) [1]) | plant injury at 62.5 g/ha (corn (Zea mays) [1]) | plant injury at 250 g/ha (corn (Zea mays) [1]) | pest or weed control at 15.625 g/ha [2] | pest or weed control at 62.5 g/ha [2] | pest or weed control at 15.625 g/ha [3] | pest or weed control at 15.625 g/ha [4] | pest or weed control at 62.5 g/ha [4] | pest or weed control at 15.625 g/ha [5] | pest or weed control at 15.625 g/ha [6] | plant injury at 15.625 g/ha (corn (Zea mays) [7]) | plant injury at 62.5 g/ha (corn (Zea mays) [7]) | pest or weed control at 15.625 g/ha [8] | pest or weed control at 15.625 g/ha [9] | pest or weed control at 15.625 g/ha [10] | pest or weed control at 15.625 g/ha [11] | pest or weed control at 62.5 g/ha [11] | pest or weed control at 15.625 g/ha [12]
10%: pest or weed control at 250 g/ha [2] | pest or weed control at 250 g/ha [3] | pest or weed control at 62.5 g/ha [5] | pest or weed control at 250 g/ha [5] | pest or weed control at 62.5 g/ha [6] | plant injury at 250 g/ha (corn (Zea mays) [7]) | pest or weed control at 62.5 g/ha [8]

COc1cccc(NC(=O)[C@@H]2C(=O)N(C)C[C@H]2c2ccc(C(F)(F)F)cc2)n1 (racemic) [Compound 1601]
10%: pest or weed control at 62.5 g/ha [4] | plant injury at 62.5 g/ha (corn (Zea mays) [7]) | pest or weed control at 62.5 g/ha [9] | pest or weed control at 62.5 g/ha [11]
40%: pest or weed control at 62.5 g/ha [10]
80%: pest or weed control at 250 g/ha [6] | pest or weed control at 62.5 g/ha [12]
70%: pest or weed control at 250 g/ha [4] | pest or weed control at 250 g/ha [10] | pest or weed control at 250 g/ha [12]
30%: plant injury at 250 g/ha (corn (Zea mays) [7]) | pest or weed control at 250 g/ha [9] | pest or weed control at 250 g/ha [11]
50%: pest or weed control at 250 g/ha [3] | pest or weed control at 250 g/ha [8]
20%: pest or weed control at 62.5 g/ha [6] | pest or weed control at 62.5 g/ha [8]
0%: plant injury at 15.625 g/ha (corn (Zea mays) [1]) | plant injury at 62.5 g/ha (corn (Zea mays) [1]) | plant injury at 250 g/ha (corn (Zea mays) [1]) | pest or weed control at 15.625 g/ha [2] | pest or weed control at 62.5 g/ha [2] | pest or weed control at 250 g/ha [2] | pest or weed control at 15.625 g/ha [3] | pest or weed control at 62.5 g/ha [3] | pest or weed control at 15.625 g/ha [4] | pest or weed control at 15.625 g/ha [5] | pest or weed control at 62.5 g/ha [5] | pest or weed control at 250 g/ha [5] | pest or weed control at 15.625 g/ha [6] | plant injury at 15.625 g/ha (corn (Zea mays) [7]) | pest or weed control at 15.625 g/ha [8] | pest or weed control at 15.625 g/ha [9] | pest or weed control at 15.625 g/ha [10] | pest or weed control at 15.625 g/ha [11] | pest or weed control at 15.625 g/ha [12]
